# Experimental data from PubChem BioAssay AID1963831 (Molecular Pharmacology Branch, DTP, NCI, 2024).
# pIC50: −log10 of the molar value.
# Test system: 889142-216-R-J1-PDC complex spheroid viability
# Assay: Anticancer human tumor 889142-216-R-J1-PDC patient-derived bladder carcinoma cell line growth inhibition [POLQ]
# Details: for pIC50: curve of first compound; for viability, T/C: stronger effect = lower value
# How it was run: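 Growth inhibition in 3D: complex spheroids (tumor PDC, HUVEC, MSC) treated with POLQ inhibitor combinations; where Cmax unknown, highest tested concentration 10 microM, except SN-38 at 1 microM.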
# [1] = second compound 0.0316 µM, first compound 0.0316 µM
# [2] = second compound 0.0316 µM, first compound 0.1 µM
# [3] = second compound 0.0316 µM, first compound 0.316 µM
# [4] = second compound 0.0316 µM, first compound 1 µM
# [5] = second compound 0.0316 µM, first compound 3.16 µM
# [6] = second compound 0.0316 µM, first compound 10 µM
# [7] = second compound 0.1 µM, first compound 0.0316 µM
# [8] = second compound 0.1 µM, first compound 0.1 µM
# [9] = second compound 0.1 µM, first compound 0.316 µM
# [10] = second compound 0.1 µM, first compound 1 µM
# [11] = second compound 0.1 µM, first compound 3.16 µM
# [12] = second compound 0.1 µM, first compound 10 µM
# [13] = second compound 0.316 µM, first compound 0.0316 µM
# [14] = second compound 0.316 µM, first compound 0.1 µM
# [15] = second compound 0.316 µM, first compound 0.316 µM
# [16] = second compound 0.316 µM, first compound 1 µM
# [17] = second compound 0.316 µM, first compound 3.16 µM
# [18] = second compound 0.316 µM, first compound 10 µM
# [19] = second compound 1 µM, first compound 0.0316 µM
# [20] = second compound 1 µM, first compound 0.1 µM
# [21] = second compound 1 µM, first compound 0.316 µM
# [22] = second compound 1 µM, first compound 1 µM
# [23] = second compound 1 µM, first compound 3.16 µM
# [24] = second compound 1 µM, first compound 10 µM
# [25] = second compound 3.16 µM, first compound 0.0316 µM
# [26] = second compound 3.16 µM, first compound 0.1 µM
# [27] = second compound 3.16 µM, first compound 0.316 µM
# [28] = second compound 3.16 µM, first compound 1 µM
# [29] = second compound 3.16 µM, first compound 3.16 µM
# [30] = second compound 3.16 µM, first compound 10 µM
# [31] = second compound 10 µM, first compound 0.0316 µM
# [32] = second compound 10 µM, first compound 0.1 µM
# [33] = second compound 10 µM, first compound 0.316 µM
# [34] = second compound 10 µM, first compound 1 µM
# [35] = second compound 10 µM, first compound 3.16 µM
# [36] = second compound 10 µM, first compound 10 µM
# 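Further: spheroids exposed to compounds for seven days.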
# 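Wherever viability, T/C is given: 100% = DMSO vehicle control viability.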
smiles,measurement,setting,value
CC1COCCN1c1cc(C2(O)CC3CCC(C2)O3)c2cnn(-c3ccn[nH]3)c2n1 (centres undefined) + Nc1ccc(C#CCN(C(=O)Cc2ncc(C(F)(F)F)cc2C(F)(F)F)c2ccc(F)cc2)nn1,pIC50,second compound 0.0316 µM,7.00
same,pIC50,second compound 0.1 µM,6.60
same,pIC50,second compound 0.316 µM,6.68
same,pIC50,second compound 1 µM,7.00
same,pIC50,second compound 3.16 µM,6.92
same,pIC50,second compound 10 µM,6.97
same,"viability, T/C",[1],63.7%
same,"viability, T/C",[2],47.1%
same,"viability, T/C",[3],39.1%
same,"viability, T/C",[4],35.1%
same,"viability, T/C",[5],30.5%
same,"viability, T/C",[6],20.3%
same,"viability, T/C",[7],67.2%
same,"viability, T/C",[8],56.4%
same,"viability, T/C",[9],49.4%
same,"viability, T/C",[10],39.4%
same,"viability, T/C",[11],31.6%
same,"viability, T/C",[12],26.1%
same,"viability, T/C",[13],71.9%
same,"viability, T/C",[14],62%
same,"viability, T/C",[15],40.9%
same,"viability, T/C",[16],35%
same,"viability, T/C",[17],27%
same,"viability, T/C",[18],20%
same,"viability, T/C",[19],64.5%
same,"viability, T/C",[20],47.3%
same,"viability, T/C",[21],37.4%
same,"viability, T/C",[22],35.4%
same,"viability, T/C",[23],29.6%
same,"viability, T/C",[24],19.4%
same,"viability, T/C",[25],57.8%
same,"viability, T/C",[26],49.3%
same,"viability, T/C",[27],44.8%
same,"viability, T/C",[28],36%
same,"viability, T/C",[29],31.2%
same,"viability, T/C",[30],16.6%
same,"viability, T/C",[31],67%
same,"viability, T/C",[32],44.3%
same,"viability, T/C",[33],42.1%
same,"viability, T/C",[34],31.2%
same,"viability, T/C",[35],26.8%
same,"viability, T/C",[36],16.2%
O=C(Nc1ccc(O)c(NS(=O)(=O)c2ccc(F)cc2)c1)c1ccc(-c2ccccc2)cc1 + Nc1ccc(C#CCN(C(=O)Cc2ncc(C(F)(F)F)cc2C(F)(F)F)c2ccc(F)cc2)nn1,pIC50,second compound 0.0316 µM,< 5.00
same,pIC50,second compound 0.1 µM,< 5.00
same,pIC50,second compound 0.316 µM,< 5.00
same,pIC50,second compound 1 µM,< 5.00
same,pIC50,second compound 3.16 µM,< 5.00
same,pIC50,second compound 10 µM,< 5.00
same,"viability, T/C",[1],118%
same,"viability, T/C",[2],101%
same,"viability, T/C",[3],83.9%
same,"viability, T/C",[4],110%
same,"viability, T/C",[5],127%
same,"viability, T/C",[6],72%
same,"viability, T/C",[7],104%
same,"viability, T/C",[8],90.7%
same,"viability, T/C",[9],94.1%
same,"viability, T/C",[10],126%
same,"viability, T/C",[11],129%
same,"viability, T/C",[12],87.3%
same,"viability, T/C",[13],96.2%
same,"viability, T/C",[14],82.1%
same,"viability, T/C",[15],110%
same,"viability, T/C",[16],105%
same,"viability, T/C",[17],134%
same,"viability, T/C",[18],73%
same,"viability, T/C",[19],117%
same,"viability, T/C",[20],84.7%
same,"viability, T/C",[21],97.7%
same,"viability, T/C",[22],148%
same,"viability, T/C",[23],119%
same,"viability, T/C",[24],78.4%
same,"viability, T/C",[25],105%
same,"viability, T/C",[26],83.4%
same,"viability, T/C",[27],135%
same,"viability, T/C",[28],139%
same,"viability, T/C",[29],127%
same,"viability, T/C",[30],64.1%
same,"viability, T/C",[31],110%
same,"viability, T/C",[32],88%
same,"viability, T/C",[33],118%
same,"viability, T/C",[34],113%
same,"viability, T/C",[35],101%
same,"viability, T/C",[36],81%
